Assays:
Test in all cases: relative viability (nuclei count vs DMSO), 5 days (fraction); higher = more cells survive
[1] = compound: COc1cc2nccc(Oc3ccc(NC(=O)C4(C(=O)Nc5ccc(F)cc5)CC4)cc3)c2cc1OC [Cabozantinib] + N=C(N)NC(=N)NCCc1ccccc1 [Phenformin] (partner 250 µM)
How it was run: (§1)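 Relative viability divides the nuclei count in treated wells by that in vehicle wells. Lung cancer cell lines were seeded in 1536-well plates, dosed by pin tool the next day, and fixed and stained after 5 days in one step with final 0.05% Triton X-100, 1% formaldehyde and 1 ug/ml Hoechst. Dosing was a single drug or a fixed anchor-drug dose plus five library-drug doses (not always all listed) in √10 steps, and values are medians of duplicate plates imaged at 4×.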

[2] = compound: C1=CC(=CC=C1NC(=S)NNC2=C(C=C(C=C2[N+](=O)[O-])C(F)(F)F)[N+](=O)[O-])F [Kobe2602] + Cc1cc(Nc2cc(N3CCN(C)CC3)nc(Sc3ccc(NC(=O)C4CC4)cc3)n2)n[nH]1 [Tozasertib] (partner 0.1 µM)
How it was run: as §1

[3] = compound: COc1cc2nccc(Oc3ccc(NC(=O)C4(C(=O)Nc5ccc(F)cc5)CC4)cc3)c2cc1OC [Cabozantinib] + Nc1ncn([C@H]2C[C@H](O)[C@@H](CO)O2)c(=O)n1 [Decitabine] (partner 2 µM)
How it was run: as §1

[4] = compound: C1=CC(=CC=C1NC(=S)NNC2=C(C=C(C=C2[N+](=O)[O-])C(F)(F)F)[N+](=O)[O-])F [Kobe2602] + CC(C)C[C@H](NC(=O)[C@H](Cc1ccccc1)NC(=O)c1cnccn1)B(O)O [Bortezomib] (partner 0.002 µM)
How it was run: as §1

| Cell Line | relative viability ([1]; first compound 0.02 µM) | relative viability ([1]; first compound 0.06325 µM) | relative viability ([1]; first compound 0.2 µM) | relative viability ([1]; first compound 0.6325 µM) | relative viability ([1]; first compound 2 µM) | relative viability ([2]; first compound 0.2 µM) | relative viability ([2]; first compound 0.6325 µM) | relative viability ([2]; first compound 2 µM) | relative viability ([2]; first compound 6.325 µM) | relative viability ([2]; first compound 20 µM) | relative viability ([3]; first compound 0.02 µM) | relative viability ([3]; first compound 0.06325 µM) | relative viability ([3]; first compound 0.2 µM) | relative viability ([3]; first compound 0.6325 µM) | relative viability ([3]; first compound 2 µM) | relative viability ([4]; first compound 0.2 µM) | relative viability ([4]; first compound 0.6325 µM) | relative viability ([4]; first compound 2 µM) | relative viability ([4]; first compound 6.325 µM) | relative viability ([4]; first compound 20 µM) |
| --- | --- | --- | --- | --- | --- | --- | --- | --- | --- | --- | --- | --- | --- | --- | --- | --- | --- | --- | --- | --- |
| NCI-H838 | 0.551 | 0.592 | 0.542 | 0.563 | 0.41 | 0.242 | 0.249 | 0.242 | 0.255 | 0.254 | 0.485 | 0.479 | 0.435 | 0.469 | 0.438 | 0.748 | 0.924 | 0.99 | 0.749 | 0.725 |
| NCI-H1355 | 0.435 | 0.516 | 0.475 | 0.436 | 0.424 | 0.587 | 0.597 | 0.534 | 0.534 | 0.542 | 0.401 | 0.372 | 0.33 | 0.363 | 0.367 | 1.21 | 1.21 | 1.01 | 1.07 | 1.13 |
| NCI-H1437 | 0.301 | 0.374 | 0.284 | 0.326 | 0.322 | 0.429 | 0.403 | 0.412 | 0.322 | 0.439 | 0.64 | 0.567 | 0.58 | 0.576 | 0.558 | 0.595 | 0.48 | 0.562 | 0.392 | 0.451 |
| NCI-H1650 | 0.434 | 0.556 | 0.395 | 0.43 | 0.376 | 0.409 | 0.337 | 0.319 | 0.24 | 0.271 | 0.386 | 0.401 | 0.365 | 0.514 | 0.548 | 0.232 | 0.192 | 0.207 | 0.192 | 0.207 |
| NCI-H1651 | 0.316 | 0.329 | 0.316 | 0.298 | 0.292 | 0.683 | 0.681 | 0.621 | 0.584 | 0.774 | 0.465 | 0.743 | 0.565 | 0.616 | 0.599 | 0.924 | 0.961 | 0.956 | 0.94 | 1.01 |
| NCI-H1666 | 0.568 | 0.559 | 0.607 | 0.544 | 0.601 | 0.644 | 0.61 | 0.571 | 0.604 | 0.544 | 0.649 | 0.754 | 0.712 | 0.711 | 0.752 | 0.919 | 0.728 | – | 0.737 | 0.867 |
| NCI-H1734 | 0.368 | 0.395 | 0.403 | 0.406 | 0.355 | 0.282 | 0.252 | 0.24 | 0.28 | 0.246 | 0.545 | 0.53 | 0.523 | 0.508 | 0.53 | 1.06 | 0.963 | 0.872 | 1.01 | 0.952 |
| NCI-H1755 | 0.611 | 0.624 | 0.57 | 0.644 | 0.561 | 0.638 | 0.596 | 0.557 | 0.608 | 0.554 | 0.729 | 0.73 | 0.757 | 0.717 | 0.742 | 1.04 | 0.971 | 0.895 | 0.96 | 1 |
| NCI-H1915 | 0.364 | 0.389 | 0.374 | 0.373 | 0.362 | 0.422 | 0.43 | 0.393 | 0.438 | 0.399 | 0.262 | 0.264 | 0.253 | 0.248 | 0.256 | 1.01 | 0.998 | 0.958 | 0.99 | 0.931 |
| NCI-H1975 | 0.408 | 0.462 | 0.386 | 0.423 | 0.399 | 0.614 | 0.432 | 0.511 | 0.689 | 0.355 | 0.406 | 0.399 | 0.412 | 0.418 | 0.327 | 0.363 | 0.392 | 0.297 | 0.365 | 0.358 |
| NCI-H1993 | 0.448 | 0.521 | 0.511 | 0.473 | 0.476 | 0.515 | 0.549 | 0.573 | 0.53 | 0.56 | 0.71 | 0.681 | 0.519 | 0.576 | 0.458 | 0.978 | 1.09 | 0.897 | 0.985 | 1.02 |
| NCI-H2009 | 0.532 | 0.549 | 0.547 | 0.518 | 0.459 | 0.713 | 0.801 | 0.619 | 0.715 | 0.7 | 0.305 | 0.384 | 0.447 | 0.394 | 0.405 | 0.961 | 1.11 | 0.97 | 1.04 | 0.949 |
| NCI-H2023 | 0.444 | 0.463 | 0.337 | 0.26 | 0.236 | 0.253 | 0.326 | 0.244 | 0.175 | 0.157 | 0.261 | 0.235 | 0.239 | 0.234 | 0.24 | 0.954 | 0.995 | 0.873 | 0.945 | 0.927 |
| NCI-H2085 | 0.749 | 0.752 | 0.595 | 0.695 | 0.616 | 0.736 | 0.772 | 0.775 | 0.567 | 0.751 | 0.583 | 0.549 | 0.58 | 0.626 | 0.642 | 1.07 | 1.08 | 0.99 | 1.07 | 1.11 |
| NCI-H2087 | 0.422 | 0.455 | 0.471 | 0.429 | 0.456 | 0.282 | 0.247 | 0.251 | 0.243 | 0.246 | 0.311 | 0.279 | 0.303 | 0.306 | 0.212 | 0.778 | 0.626 | 0.644 | 0.851 | 0.83 |
| NCI-H2126 | 0.443 | 0.555 | 0.539 | 0.544 | 0.586 | 0.856 | 0.821 | 0.812 | 0.733 | 0.591 | 0.531 | 0.546 | 0.618 | 0.643 | 0.59 | 1.14 | 1.09 | 1.11 | 1.19 | 1.11 |
| NCI-H2347 | 0.449 | 0.604 | 0.596 | – | 0.318 | 0.708 | 0.647 | 0.512 | 0.495 | 0.55 | 0.66 | 0.667 | 0.601 | 0.609 | 0.516 | 1.16 | 1.01 | 0.879 | 0.827 | 1.44 |
| NCI-H2405 | 0.335 | 0.46 | 0.484 | 0.39 | 0.418 | 0.804 | 0.758 | 0.732 | 0.767 | 0.853 | 0.725 | 0.788 | 0.77 | 0.752 | 0.764 | 1.05 | 0.999 | 0.936 | 0.968 | 0.999 |
| NCI-H3122 | 0.45 | 0.423 | 0.374 | 0.333 | 0.324 | 0.451 | 0.381 | 0.399 | 0.393 | 0.403 | 0.394 | 0.413 | 0.422 | 0.411 | 0.467 | 1.09 | 0.96 | 0.93 | 1.04 | 1.08 |
| PC-3 [JPC-3] | 0.491 | 0.505 | – | 0.457 | 0.462 | 0.885 | 0.836 | 0.849 | 0.858 | 0.807 | 0.782 | 0.886 | – | 0.872 | 0.797 | 0.905 | 0.812 | 0.766 | 0.871 | 0.795 |
| PC-14 | 0.531 | 0.93 | – | 0.591 | 0.552 | 0.606 | 0.562 | 0.596 | 0.602 | 0.559 | 0.237 | 0.203 | – | 0.219 | 0.249 | 0.814 | 0.848 | 0.818 | 0.837 | 0.859 |
| RERF-LC-KJ | 0.442 | 0.404 | 0.44 | 0.418 | 0.413 | 0.492 | 0.528 | 0.473 | 0.285 | 0.271 | 0.717 | 0.735 | 0.649 | 0.666 | 0.746 | 1.11 | 1.15 | 1.15 | 1.15 | 1.15 |
| SK-LU-1 | 0.587 | 0.791 | 0.552 | 0.476 | 0.438 | 0.31 | 0.371 | 0.333 | 0.372 | 0.357 | 0.583 | 0.698 | 0.668 | 0.631 | 0.627 | 1.38 | 1.55 | 1.18 | 1.37 | 1.61 |
| SW 1573 | 0.45 | 0.368 | 0.331 | 0.365 | 0.345 | 0.194 | 0.163 | 0.179 | 0.271 | 0.183 | 0.476 | 0.573 | 0.519 | 0.536 | 0.416 | 1.21 | 0.967 | 1.06 | 0.945 | 1.18 |
